Results as given in a compilation of properties of binary mixtures (doi:10.1021/je950317s).

Test: excess molar enthalpy (molar enthalpy of mixing); xn = mol fraction of the nth substance listed
Conditions: 100 kPa

Cl/C=C/Cl + CCCCCCCCCCCCCC
293.15 K
Conditions | excess molar enthalpy [kcal/mol]
x1 = 0.1129 | 0.05
x1 = 0.1792 | 0.0877
x1 = 0.3112 | 0.14
x1 = 0.3404 | 0.153
x1 = 0.3809 | 0.165
x1 = 0.4345 | 0.181
x1 = 0.4786 | 0.193
x1 = 0.5019 | 0.2
x1 = 0.535 | 0.201
x1 = 0.5634 | 0.205
x1 = 0.5851 | 0.204
x1 = 0.6008 | 0.207
x1 = 0.6211 | 0.209
x1 = 0.6352 | 0.208
x1 = 0.6675 | 0.204
x1 = 0.6789 | 0.202
x1 = 0.7008 | 0.199
x1 = 0.7106 | 0.198
x1 = 0.7314 | 0.191
x1 = 0.747 | 0.188
x1 = 0.757 | 0.185
x1 = 0.7762 | 0.178
x1 = 0.8541 | 0.141
x1 = 0.8757 | 0.127
x1 = 0.9005 | 0.108
x1 = 0.9374 | 0.0746

Cl/C=C/Cl + CC(C)CC(C)(C)C
293.15 K
Conditions | excess molar enthalpy [kcal/mol]
x1 = 0.1328 | 0.0519
x1 = 0.1885 | 0.0681
x1 = 0.2561 | 0.0923
x1 = 0.3253 | 0.111
x1 = 0.415 | 0.124
x1 = 0.4532 | 0.13
x1 = 0.4584 | 0.134
x1 = 0.5167 | 0.141
x1 = 0.5332 | 0.138
x1 = 0.5571 | 0.138
x1 = 0.5777 | 0.139
x1 = 0.6055 | 0.139
x1 = 0.6468 | 0.135
x1 = 0.6554 | 0.133
x1 = 0.6658 | 0.131
x1 = 0.6824 | 0.13
x1 = 0.6926 | 0.127
x1 = 0.8092 | 0.0997
x1 = 0.8404 | 0.0875
x1 = 0.8988 | 0.0619
x1 = 0.9517 | 0.033

Cl/C=C/Cl + CCCCCCCCCCCC
293.15 K
Conditions | excess molar enthalpy [kcal/mol]
x1 = 0.086 | 0.0404
x1 = 0.1183 | 0.05
x1 = 0.1952 | 0.0913
x1 = 0.2658 | 0.115
x1 = 0.354 | 0.151
x1 = 0.4354 | 0.175
x1 = 0.5034 | 0.19
x1 = 0.5297 | 0.19
x1 = 0.5654 | 0.193
x1 = 0.5792 | 0.19
x1 = 0.637 | 0.19
x1 = 0.6708 | 0.187
x1 = 0.6712 | 0.19
x1 = 0.6857 | 0.185
x1 = 0.7145 | 0.182
x1 = 0.7213 | 0.179
x1 = 0.7547 | 0.173
x1 = 0.7676 | 0.166
x1 = 0.8276 | 0.14
x1 = 0.8799 | 0.107
x1 = 0.9289 | 0.0707
x1 = 0.9652 | 0.038

Cl/C=C\Cl + CCCCCCCCCC
293.15 K
Conditions | excess molar enthalpy [kcal/mol]
x1 = 0.2397 | 0.171
x1 = 0.4025 | 0.253
x1 = 0.6996 | 0.239
x1 = 0.7635 | 0.211
x1 = 0.9492 | 0.0662

Cl/C=C\Cl + CCCCCCCCCCCCCCCC
293.15 K
Conditions | excess molar enthalpy [kcal/mol]
x1 = 0.5093 | 0.332
x1 = 0.6348 | 0.36
x1 = 0.714 | 0.353
x1 = 0.7791 | 0.326
x1 = 0.8308 | 0.282
x1 = 0.8823 | 0.228
x1 = 0.9221 | 0.168
x1 = 0.9676 | 0.0798

Cl/C=C\Cl + CC(C)CC(C)(C)C
293.15 K
Conditions | excess molar enthalpy [kcal/mol]
x1 = 0.2119 | 0.142
x1 = 0.3627 | 0.209
x1 = 0.4911 | 0.228
x1 = 0.5812 | 0.226
x1 = 0.6622 | 0.21
x1 = 0.7314 | 0.188
x1 = 0.8061 | 0.155
x1 = 0.8696 | 0.116
x1 = 0.9434 | 0.0566

Cl/C=C\Cl + CCCCCCC
313.15 K
Conditions | excess molar enthalpy [kcal/mol]
x1 = 0.0572 | 0.0485
x1 = 0.2014 | 0.148
x1 = 0.3465 | 0.218
x1 = 0.4595 | 0.245
x1 = 0.5694 | 0.24
x1 = 0.6673 | 0.221
x1 = 0.7579 | 0.183
x1 = 0.8409 | 0.137
x1 = 0.9317 | 0.0652

Cl/C=C/Cl + CCCCCCC
293.15 K
Conditions | excess molar enthalpy [kcal/mol]
x1 = 0.1911 | 0.081
x1 = 0.2074 | 0.0851
x1 = 0.2453 | 0.102
x1 = 0.2905 | 0.111
x1 = 0.3272 | 0.128
x1 = 0.352 | 0.129
x1 = 0.3757 | 0.137
x1 = 0.4118 | 0.151
x1 = 0.4157 | 0.15
x1 = 0.452 | 0.158
x1 = 0.4756 | 0.158
x1 = 0.4978 | 0.161
x1 = 0.5334 | 0.162
x1 = 0.5472 | 0.163
x1 = 0.5627 | 0.165
x1 = 0.5821 | 0.162
x1 = 0.6074 | 0.164
x1 = 0.6429 | 0.157
x1 = 0.6534 | 0.156
x1 = 0.7038 | 0.145
x1 = 0.7761 | 0.125
x1 = 0.8005 | 0.117
x1 = 0.907 | 0.0655
x1 = 0.9624 | 0.0301

Cl/C=C\Cl + CCCCCCCCCCCCCC
293.15 K
Conditions | excess molar enthalpy [kcal/mol]
x1 = 0.3157 | 0.229
x1 = 0.5126 | 0.327
x1 = 0.638 | 0.336
x1 = 0.7787 | 0.288
x1 = 0.8831 | 0.194
x1 = 0.923 | 0.139
x1 = 0.969 | 0.0657

Cl/C=C/Cl + CCCCCCCCCC
293.15 K
Conditions | excess molar enthalpy [kcal/mol]
x1 = 0.0575 | 0.022
x1 = 0.1583 | 0.0636
x1 = 0.2175 | 0.0865
x1 = 0.2316 | 0.0944
x1 = 0.2585 | 0.106
x1 = 0.3396 | 0.132
x1 = 0.3972 | 0.152
x1 = 0.4202 | 0.16
x1 = 0.4829 | 0.168
x1 = 0.5312 | 0.179
x1 = 0.5522 | 0.178
x1 = 0.5739 | 0.175
x1 = 0.6031 | 0.175
x1 = 0.6375 | 0.178
x1 = 0.6555 | 0.176
x1 = 0.6923 | 0.165
x1 = 0.6977 | 0.166
x1 = 0.7284 | 0.163
x1 = 0.7393 | 0.161
x1 = 0.7653 | 0.148
x1 = 0.7812 | 0.144
x1 = 0.8229 | 0.127
x1 = 0.8478 | 0.116
x1 = 0.9335 | 0.0602
x1 = 0.9785 | 0.0213

Cl/C=C\Cl + CCCCCCCCCCCC
293.15 K
Conditions | excess molar enthalpy [kcal/mol]
x1 = 0.2693 | 0.192
x1 = 0.4431 | 0.283
x1 = 0.6609 | 0.281
x1 = 0.7922 | 0.232
x1 = 0.851 | 0.191
x1 = 0.9026 | 0.139
x1 = 0.9588 | 0.0679

Cl/C=C/Cl + CCCCCCCCCCCCCCCC
293.15 K
Conditions | excess molar enthalpy [kcal/mol]
x1 = 0.0735 | 0.0351
x1 = 0.1873 | 0.0944
x1 = 0.3532 | 0.167
x1 = 0.4326 | 0.192
x1 = 0.5287 | 0.212
x1 = 0.5819 | 0.223
x1 = 0.6155 | 0.223
x1 = 0.6514 | 0.22
x1 = 0.7106 | 0.214
x1 = 0.7294 | 0.208
x1 = 0.7428 | 0.205
x1 = 0.7698 | 0.197
x1 = 0.7846 | 0.194
x1 = 0.8008 | 0.184
x1 = 0.8578 | 0.152
x1 = 0.8776 | 0.137
x1 = 0.8951 | 0.125
x1 = 0.9485 | 0.071
x1 = 0.9795 | 0.0306
